Laboratory results taken from PubChem BioAssay AID248 (DTP/NCI, 2004).
Values joined by “and” are separate entries in the source; they are usually repeats but may differ in a detail not shown here. Identical values can stand only once. Inconclusive results and toxic doses are left out. No stated cut-off is given here; in the data, active means T/C of 150% or more; inactive means T/C below 125%.

Tested on: L1210 leukemia ip in BDF1 mice, survival T/C
Assay: NCI In Vivo Anticancer Drug Screen. Data for tumor model L1210 Leukemia (intraperitoneal) in B6D2F1 (BDF1) mice
Settings: endpoint: mean survival time, higher = longer survival
Procedure, shortened: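 Read-out is survival time, reported as the treated-group measurement over the vehicle-control measurement.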

[1] = dose: 75.0 mg/kg/injection, schedule: Q01DX001 (ip), vehicle: saline
[2] = dose: 100.0 mg/kg/injection, schedule: Q01DX009 (ip), vehicle: saline with Tween-80
[3] = dose: 100.0 mg/kg/injection, schedule: Q04DX003 (ip), vehicle: saline with Tween-80
[4] = dose: 200.0 mg/kg/injection, schedule: Q01DX009 (ip), vehicle: saline with Tween-80
[5] = dose: 200.0 mg/kg/injection, schedule: Q04DX003 (ip), vehicle: saline with Tween-80
[6] = dose: 400.0 mg/kg/injection, schedule: Q04DX003 (ip), vehicle: saline with Tween-80
[7] = dose: 50.0 mg/kg/injection, schedule: Q01DX001 (ip), vehicle: saline
[8] = dose: 100.0 mg/kg/injection, schedule: Q01DX001 (ip), vehicle: saline
[9] = dose: 200.0 mg/kg/injection, schedule: Q01DX001 (ip), vehicle: saline
[10] = dose: 400.0 mg/kg/injection, schedule: Q01DX001 (ip), vehicle: saline

Measured: T/C

Cc1ccc(S(=O)(=O)OC2C(O)C(CO)OC2n2c(Br)c(C(N)=O)c3c(N)ncnc32)cc1 (stereo unspecified)
inactive: dose: 25.0 mg/kg/injection, schedule: Q01DX009 (ip), vehicle: water 100 % of control | dose: 50.0 mg/kg/injection, schedule: Q01DX009 (ip), vehicle: water 97 % of control | dose: 100.0 mg/kg/injection, schedule: Q01DX009 (ip), vehicle: water 95 % of control | dose: 200.0 mg/kg/injection, schedule: Q01DX009 (ip), vehicle: water 93 % of control

COC(=O)C1(C)CCC2(C)CCC3(C)C4=CC=C5C(=CC(=O)C(O)=C5C)C4(C)CCC3(C)C2C1 (stereo unspecified)
inactive: dose: 37.5 mg/kg/injection, schedule: Q01DX001 (sc), vehicle: steriod suspending solution 104 % of control | dose: 75.0 mg/kg/injection, schedule: Q01DX001 (sc), vehicle: steriod suspending solution 98 % of control | dose: 150.0 mg/kg/injection, schedule: Q01DX001 (sc), vehicle: steriod suspending solution 98 % of control | dose: 300.0 mg/kg/injection, schedule: Q01DX001 (sc), vehicle: steriod suspending solution 95 % of control

COc1ccc(CCNCC(O)CSc2cccc(C)c2)cc1OC (stereo unspecified)
inactive: [1] 101 % of control | dose: 150.0 mg/kg/injection, schedule: Q01DX001 (ip), vehicle: saline 95 % of control

COc1cc(N=Nc2ccccc2C(=O)O)ccc1O
inactive: [2] 96 % of control | [3] 96 % of control | [4] 104 % of control | [5] 101 % of control | [6] 101 % of control

C(=N\NC1=NCCN1)/c1ccccc1
inactive: dose: 2.5 mg/kg/injection, schedule: Q01DX009 (ip), vehicle: saline 101 % of control | dose: 5.0 mg/kg/injection, schedule: Q01DX009 (ip), vehicle: saline 97 % of control | dose: 5.0 mg/kg/injection, schedule: Q04DX003 (ip), vehicle: saline 97 % of control | dose: 10.0 mg/kg/injection, schedule: Q01DX001 (ip), vehicle: saline 105 % of control | dose: 10.0 mg/kg/injection, schedule: Q01DX009 (ip), vehicle: saline 93 % of control | dose: 10.0 mg/kg/injection, schedule: Q04DX003 (ip), vehicle: saline 94 % of control | dose: 20.0 mg/kg/injection, schedule: Q01DX001 (ip), vehicle: saline 104 % of control | dose: 20.0 mg/kg/injection, schedule: Q04DX003 (ip), vehicle: saline 97 % of control

O=C1C(Br)=CC(=NCl)C=C1Br
inactive: dose: 6.25 mg/kg/injection, schedule: Q01DX009 (ip), vehicle: DMSO 87 % of control | dose: 12.5 mg/kg/injection, schedule: Q01DX009 (ip), vehicle: DMSO 94 % of control | dose: 12.5 mg/kg/injection, schedule: Q04DX002 (ip), vehicle: DMSO 103 % of control | dose: 25.0 mg/kg/injection, schedule: Q04DX002 (ip), vehicle: DMSO 95 % of control

Cc1ccc(N=N/C(=N\Nc2ccc(C)cc2)[N+](=O)[O-])cc1
inactive: dose: 75.0 mg/kg/injection, schedule: Q01DX001 (ip), vehicle: acetone 90 % of control | dose: 150.0 mg/kg/injection, schedule: Q01DX001 (ip), vehicle: acetone 94 % of control and 86 % of control and 89 % of control | dose: 300.0 mg/kg/injection, schedule: Q01DX001 (ip), vehicle: acetone 93 % of control and 87 % of control and 88 % of control

CCCCSC(C)(C)CC
inactive: [7] 98 % of control | [8] 93 % of control | [9] 107 % of control | [10] 104 % of control

O=P(O)(O)CCC(F)(F)C(F)(F)C(F)(F)C(F)(F)C(F)(F)C(F)(F)C(F)(F)F
inactive: [1] 96 % of control

C/C(=N\NC(=O)c1ccccc1)c1ccc(-c2ccccc2)cc1
inactive: dose: 100.0 mg/kg/injection, schedule: Q01DX009 (ip), vehicle: Klucel (hydroxypropylcellulose) (HPC) 94 % of control | dose: 200.0 mg/kg/injection, schedule: Q01DX009 (ip), vehicle: Klucel (hydroxypropylcellulose) (HPC) 105 % of control | dose: 400.0 mg/kg/injection, schedule: Q01DX009 (ip), vehicle: Klucel (hydroxypropylcellulose) (HPC) 94 % of control

N#CCC1(O)c2ccccc2-c2ccccc21
inactive: [7] 98 % of control | [8] 98 % of control | [9] 102 % of control | [10] 96 % of control

CCOC(=O)/C(O)=C\c1cc[n+]([O-])nc1Cl
inactive: dose: 100.0 mg/kg/injection, schedule: Q04DX002 (ip), vehicle: Klucel (hydroxypropylcellulose) (HPC) 101 % of control | dose: 200.0 mg/kg/injection, schedule: Q04DX002 (ip), vehicle: Klucel (hydroxypropylcellulose) (HPC) 101 % of control | dose: 400.0 mg/kg/injection, schedule: Q04DX002 (ip), vehicle: Klucel (hydroxypropylcellulose) (HPC) 101 % of control

C[N+](C)(C)CCOc1ccc([N+](=O)[O-])cc1
inactive: [7] 95 % of control | [8] 104 % of control | [9] 92 % of control

COc1ccc(Nc2ccc(O)c3c2C(=O)c2ccccc2C3=O)c(Br)c1
inactive: [8] 101 % of control | [9] 95 % of control | [10] 97 % of control

C/C=C/C=C\COC(=O)C(C)C
inactive: dose: 100.0 mg/kg/injection, schedule: Q04DX002 (ip), vehicle: saline 103 % of control | dose: 200.0 mg/kg/injection, schedule: Q04DX002 (ip), vehicle: saline 96 % of control | dose: 400.0 mg/kg/injection, schedule: Q04DX002 (ip), vehicle: saline 114 % of control

COC(=O)c1cc(C(C)=O)ccc1OC(=O)c1ccccc1
inactive: [2] 98 % of control | [3] 88 % of control | [4] 94 % of control | [5] 90 % of control | dose: 400.0 mg/kg/injection, schedule: Q01DX009 (ip), vehicle: saline with Tween-80 100 % of control | [6] 108 % of control

O=C(N/N=C/c1ccccc1)c1ccccc1
inactive: dose: 100.0 mg/kg/injection, schedule: Q01DX009 (ip), vehicle: saline 102 % of control | dose: 100.0 mg/kg/injection, schedule: Q04DX003 (ip), vehicle: alcohol 98 % of control | dose: 200.0 mg/kg/injection, schedule: Q01DX009 (ip), vehicle: saline 104 % of control | dose: 200.0 mg/kg/injection, schedule: Q04DX003 (ip), vehicle: alcohol 95 % of control | dose: 400.0 mg/kg/injection, schedule: Q01DX009 (ip), vehicle: saline 96 % of control | dose: 400.0 mg/kg/injection, schedule: Q04DX003 (ip), vehicle: alcohol 90 % of control
